# The supplement of paper PMC10307832
# Assays:
# Test in all cases: relative viability (nuclei count vs DMSO), 5 days (fraction); higher = more cells survive
# Bortezomib + Dasatinib = compound: CC(C)C[C@H](NC(=O)[C@H](Cc1ccccc1)NC(=O)c1cnccn1)B(O)O [Bortezomib] + Cc1nc(Nc2ncc(C(=O)Nc3c(C)cccc3Cl)s2)cc(N2CCN(CCO)CC2)n1 [Dasatinib] (partner 0.075 µM)
# Procedure, shortened: (§1)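 Nuclei were stained with Hoechst during a one-step fixation (final 0.05% Triton X-100, 1% formaldehyde, 1 ug/ml Hoechst) carried out 5 days after dosing, then counted on 4× images. The cells, lung cancer lines in 1536-well plates, had been dosed by pin tool the day after seeding with one drug alone or a fixed anchor-drug dose plus five library-drug doses (not always all listed) in √10 steps. Relative viability is the nuclei count in treated wells divided by that in vehicle wells, and each value is the median of duplicate plates.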
# Bortezomib + Luminespib = compound: CC(C)C[C@H](NC(=O)[C@H](Cc1ccccc1)NC(=O)c1cnccn1)B(O)O [Bortezomib] + CCNC(=O)c1noc(-c2cc(C(C)C)c(O)cc2O)c1-c1ccc(CN2CCOCC2)cc1 [Luminespib] (partner 0.01 µM)
# Procedure, shortened: as §1
# [1] = compound: CC1=CC(=NN1)NC2=CC(=NC(=N2)/C=C/C3=CC=CC=C3)N4CCN(CC4)C + O=C(c1cc(Cc2n[nH]c(=O)c3ccccc23)ccc1F)N1CCN(C(=O)C2CC2)CC1 [Olaparib] (partner 8 µM)
# Procedure, shortened: as §1
# [2] = compound: CC1=CC(=NN1)NC2=CC(=NC(=N2)/C=C/C3=CC=CC=C3)N4CCN(CC4)C + Nc1nc2[nH]cc(CCc3ccc(C(=O)N[C@@H](CCC(=O)O)C(=O)O)cc3)c2c(=O)[nH]1 [Pemetrexed] (partner 0.2 µM)
# Procedure, shortened: as §1
Cell Line,relative viability (Bortezomib + Dasatinib; first compound 0.0002 µM),relative viability (Bortezomib + Dasatinib; first compound 0.000632 µM),relative viability (Bortezomib + Dasatinib; first compound 0.002 µM),relative viability (Bortezomib + Dasatinib; first compound 0.006325 µM),relative viability (Bortezomib + Dasatinib; first compound 0.02 µM),relative viability (Bortezomib + Luminespib; first compound 0.0002 µM),relative viability (Bortezomib + Luminespib; first compound 0.000632 µM),relative viability (Bortezomib + Luminespib; first compound 0.002 µM),relative viability (Bortezomib + Luminespib; first compound 0.006325 µM),relative viability (Bortezomib + Luminespib; first compound 0.02 µM),relative viability ([1]; first compound 0.08 µM),relative viability ([1]; first compound 0.253 µM),relative viability ([1]; first compound 0.8 µM),relative viability ([1]; first compound 2.53 µM),relative viability ([1]; first compound 8 µM),relative viability ([2]; first compound 0.08 µM),relative viability ([2]; first compound 0.253 µM),relative viability ([2]; first compound 0.8 µM),relative viability ([2]; first compound 2.53 µM),relative viability ([2]; first compound 8 µM)
201T,0.571,0.607,0.536,0.589,0.283,1.03,1.01,1.09,0.745,0.215,0.838,0.837,0.828,0.819,0.487,0.31,0.318,0.376,0.327,0.298
LC-2-ad,0.52,0.332,0.6,0.149,0.187,0.972,1.06,0.64,0.226,0.214,0.692,0.687,0.704,0.471,0.164,0.263,0.266,0.269,0.187,0.143
NCI-H596,0.488,0.519,0.596,0.2,0.184,0.942,0.73,0.609,0.244,0.2,0.729,0.607,0.601,0.412,0.24,0.468,0.5,0.456,0.408,0.228
NCI-H1437,0.335,0.374,0.486,0.129,0.11,1.11,1.07,1.14,0.165,0.155,0.603,0.664,0.631,0.416,0.138,0.422,0.325,0.295,0.212,0.162
